Laboratory results taken from patent US7820212B2, “Abietane diterpenoid compound, and composition comprising extract of Torreya nucifera, or abietane diterpenoid compounds or terpenoid compounds isolated from them for prevention and treatment of cardiovascular disease” (Korea Research Institute of Bioscience and Biotechnology, priority 2004, dated 2010).

Assays:
LDL = assay: Anti-oxidative activity to LDL by TBARS method (Cu2+ mediated LDL-oxidation); type: biochemical, human; details: 37° C. 4 hours, MDA by TBARS
Protocol: Cu^2+ is known to mediate LDL-oxidation. Thus, in the present invention, dialdehyde, which is an oxidation product of unsaturated fatty acid formed during Cu^2+ mediated LDL-oxidation, was measured by thiobarbituric acid reactive substances (TBARS) method in order to investigate the LDL anti-oxidative activity of T. nucifera extracts or abietane diterpenoid compound separated from the same (Ahn, B. T. et. al., Low-density Lipoprotein-Antioxidant Constituents of Saururus Chinensis, J. Nat. Prod. 64: 1562, 2001). Centrifugation was performed with 300 ml of human blood plasma by using a ultracentrifuge at 100,000×g for 24 hours to remove floating VLDL/chylomicron layer in the upper part. The specific gravity of the remaining solution was adjusted to 1.063 g/ml. Centrifugation was performed again at 100,000×g for 24 hours, and 25 ml of the floating LDL (1.5˜2.5 mg protein/ml) in the upper layer was separated. […] T. nucifera extracts or abietane diterpenoid compound isolated from the same was dissolved in DMSO (dimethylsulfoxide), and the solution was diluted at different concentrations before use. […] OD540 was measured with a UV/VIS spectrophotometer. Malondialdehyde (MDA) detected by the above coloring was quantified. […] MDA was quantified by using the standard curve in experiments with T. nucifera extracts or abietane diterpenoid compound isolated from the same.

C57BL/6J mice = assay: Cholesterol-lowering effect in mice on high-fat/high-cholesterol (HFHC) diet; type: in vivo; details: for HDL-cholesterol / HDL/total cholesterol / Total cholesterol: blood plasma, 1% extracts or 0.1% probucol (wt/wt diet)
Protocol: 30 specific pathogens free male C57BL/6J mice at the age of 6 weeks were raised in an animal facility, in which temperature was maintained as 22±3° C., humidity was kept as 55±10% and light was regulated as 12L/12D. The mice were adapted for about one week before being used for experiments. When they were at the age of 7 weeks (weight: 20˜22 g), they were divided into […] according to randomized block design. Group 1 mice were given with high-cholesterol/high-fat diet (CRF-1; AIN-76 test animal's normal diet supplemented with 1.25% cholesterol and 15% fat, Orient Yeast Co. Ltd., Japan), group 2 mice were given with high-fat/high-cholesterol (HFHC) diet together with 1% methanol extracts (wt/wt diet) of T. nucifera leaves (or 1% hot water extracts of T. nucifera leaves), and group 3 mice were treated with HFHC diet together with 0.1% probucol (wt/wt diet). All the mice of every group were free to take the diet and water for 10 days. Dietary intake was recorded everyday and weights of animals were measured every 5 days. Upon completion of breeding, all the records were analyzed. […] All the mice in three groups were sacrificed 10 days after the beginning of animal tests, then their blood was examined. Blood was taken from retro-orbital sinus of the sacrified mice by heparin treated capillary tube. Centrifugation was performed with blood at 8,000×g for 10 minutes. Blood plasma was separated from supernatant and then stored in a deep freezer. Total cholesterol content (TC) in blood plasma of each mouse of experimental group was measured by using a blood chemistry analyzer (CIBA Corning 550 Express, USA). In order to measure HDL-cholesterol, HDL measuring reagent (Chiron Diagnostics Co., USA), produced by the modified method for HDL measurement (references [(1) Stein E. A., et al.: Development and evaluation of a method for quantitation of plasma high-density-lipoprotein cholesterol. Clin. Chem. 24: 1112-1115, 1978; (2) Finley P. R., et al.: Cholesterol in high-density lipoprotein: use of Mg^2+/dextran sulfate in its enzymatic measurement. Clin. Chem., 24: 931-933, 1978; (3) Warnick G. R., et al.: Dextran sulfate-Mg^2+ precipitation procedure for quantitation of high-density lipoprotein cholesterol. Clin. Chem. 28: 1379-1388, 1982]) in which dextran sulfate and magnesium sulfate were added to serum of each mouse to precipitate LDL and VLDL and then HDL in supernatant was measured, was mixed with blood plasma of each experimental group at the ratio of 1:10. […] The resultant supernatant was put in a blood chemistry analyzer. A statistical computer program (Microsoft Excel, Version 7.0) was used to investigate and confirm (student t-test) the significance in difference in the results of blood analysis among experimental groups.

hACAT-1 = molecular target: T1, hACAT-1 (Homo sapiens, UniProt P35610); assay: ACAT activity, microsomal fraction of Hi5 cells over-expressing hACAT-1; type: biochemical
T1 construct: made in house; host or cells: Hi5 insect cells infected with recombinant baculovirus (virus produced in sf9 cells); microsomal fraction used
T1 sequence (P35610 1-550): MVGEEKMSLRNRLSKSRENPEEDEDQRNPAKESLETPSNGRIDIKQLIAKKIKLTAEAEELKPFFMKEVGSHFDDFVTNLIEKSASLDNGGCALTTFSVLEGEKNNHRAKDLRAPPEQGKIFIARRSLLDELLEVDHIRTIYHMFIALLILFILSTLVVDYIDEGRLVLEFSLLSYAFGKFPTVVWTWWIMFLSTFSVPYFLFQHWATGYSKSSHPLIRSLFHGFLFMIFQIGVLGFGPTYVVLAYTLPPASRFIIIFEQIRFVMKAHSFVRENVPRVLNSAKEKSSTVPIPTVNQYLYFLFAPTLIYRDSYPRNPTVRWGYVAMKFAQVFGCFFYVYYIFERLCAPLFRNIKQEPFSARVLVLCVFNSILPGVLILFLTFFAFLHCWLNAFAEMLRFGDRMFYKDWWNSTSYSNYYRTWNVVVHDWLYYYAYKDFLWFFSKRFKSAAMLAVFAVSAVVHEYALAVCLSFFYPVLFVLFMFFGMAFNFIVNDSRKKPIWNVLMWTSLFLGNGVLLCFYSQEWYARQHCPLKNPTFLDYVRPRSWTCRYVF
Protocol: (§1) In order to investigate the effect on hACAT-1 and hACAT-2 activities, hACAT-1 and hACAT-2 proteins were first obtained by taking advantage of baculovirus expression system.
(§2) cDNAs of hACAT-1 and hACAT-2 obtained from human liver cDNA library screening were inserted into baculovirus transfer vector, which was then introduced into insect sf9 cells to produce virus. Then, recombinant viruses of HACAT-1 and hACAT-2 were separated by plaque purification method, and amplification was performed three times to increase titer of viral stock. Hi5 insect cells having a good protein expression efficacy were infected with the recombinant virus, making multiplicity of infection as 1, followed by shaking culture at 27° C. for one day.
(§3) The cultured Hi5 cells over-expressing hACAT-1 and hACAT-2 were centrifuged at 500×g for 15 minutes to separate microsomal fraction. Then, cells were crushed in hypotonic buffer by quick freezing quick thawing, followed by ultracentrifugation at 100,000×g for one hour.
(§4) The obtained microsomal fractions were suspended in storage buffer solution, adjusting protein content to 8 mg/ml, which was stored in a deep freezer before using.
(§5) 6.67 μl of cholesterol dissolved in acetone at the concentration of 1 mg/ml was mixed with 6 μl of 10% triton WR 1339 (Sigma Co.) in acetone. And acetone was evaporated by nitrogen gas. Distilled water was added to the resultant mixture to adjust the content of cholesterol to […].
(§6) To 10 μl of cholesterol solution was added 10 μl of 1 M KH2PO4 (pH 7.4), 5 μl of 0.6 mM BSA (bovine serum albumin), 10 μl of the microsomal solution obtained above, 10 μl of sample (T. nucifera extracts or abietane diterpenoid compound isolated from the same) and 45 μl of distilled water (total 90 μl). The mixture was pre-incubated in a 37° C. water bath for 30 minutes.
(§7) 10 μl of [1-^14C]oleyl-CoA solution (0.05 μCi, final concentration 10 μM) was added to the pre-incubated mixture, which was reacted in a 37° C. water bath for 30 minutes. To the mixture was added 500 μl of isopropanol:heptane solution (4:1 (v/v)), 300 μl of heptane and 200 μl of 0.1 M KH2PO4 (pH 7.4), which was stirred vigorously with vortex and then allowed to phase separation under gravity at room temperature for 2 minutes.
(§8) The 200 μl of upper phase was put in a scintillation vial, to which 4 ml of scintillation solution (Lipoluma, Lumac Co.) was added. Radioactivity of the upper phase was measured by a scintillation counter (1450 Microbeta liquid scintillation counter, Wallacoy, Finland).
(§9) ACAT activity was calculated based on the radioactivity, the amount of synthesized cholesteryl oleate, measured above and expressed as a defined unit, pico mole per 1 mg of protein for 1 minute (pico mole/minute/mg protein).

hACAT-2 = molecular target: T2, hACAT-2 (Homo sapiens, UniProt O75908); assay: ACAT activity, microsomal fraction of Hi5 cells over-expressing hACAT-2; type: biochemical
T2 construct: made in house; host or cells: Hi5 insect cells infected with recombinant baculovirus (virus produced in sf9 cells); microsomal fraction used
T2 sequence (O75908 1-522): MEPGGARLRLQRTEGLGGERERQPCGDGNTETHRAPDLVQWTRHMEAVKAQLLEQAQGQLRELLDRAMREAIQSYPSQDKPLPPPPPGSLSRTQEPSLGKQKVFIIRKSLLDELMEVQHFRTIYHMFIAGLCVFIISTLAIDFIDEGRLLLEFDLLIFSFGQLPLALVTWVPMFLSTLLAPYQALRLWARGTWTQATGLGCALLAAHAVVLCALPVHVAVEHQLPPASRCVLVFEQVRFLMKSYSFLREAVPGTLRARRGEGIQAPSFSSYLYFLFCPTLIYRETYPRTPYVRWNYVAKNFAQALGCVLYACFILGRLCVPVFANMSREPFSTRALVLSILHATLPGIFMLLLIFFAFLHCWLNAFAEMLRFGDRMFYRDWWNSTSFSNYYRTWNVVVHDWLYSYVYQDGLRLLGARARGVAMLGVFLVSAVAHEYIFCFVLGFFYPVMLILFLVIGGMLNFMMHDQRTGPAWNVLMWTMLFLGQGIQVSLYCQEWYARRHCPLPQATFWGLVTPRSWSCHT
Protocol: as §1, §2, §3, §4, §5, §6, §7, §8, §9

| IC50 (hACAT-1) [µM] | IC50 (hACAT-2) [µM] | Compound | further results |
| --- | --- | --- | --- |
| 37 | 42 | CC(C)c1cc2c(cc1O)[C@@]1(C)CCC[C@@](C)(C=O)C1CC2 (stereo partly drawn) [R = aldehyde, 18-oxoferruginol] |  |
| 79 |  | δ-cadinol |  |
| 120 | 155 | C=C1CCC2[C@](C)(CO)CCC[C@]2(C)[C@H]1CC/C(C)=C\CO (stereo partly drawn) [Kayadiol, kayadiol] |  |
| 74 | 65 | CC(C)c1cc2c(cc1O)[C@@]1(C)CCC[C@@](C)(CO)C1CC2 (stereo partly drawn) [R = hydroxymethyl, 18-hydroxyferruginol] |  |

Further lines, the compound ahead of its results:

| Compound | IC50 (hACAT-1) [µM] | IC50 (hACAT-2) [µM] | further results |
| --- | --- | --- | --- |
| CC(C)(Sc1cc(C(C)(C)C)c(O)c(C(C)(C)C)c1)Sc1cc(C(C)(C)C)c(O)c(C(C)(C)C)c1 [Probucol] |  |  | IC50 (LDL): 1.55 µM; plasma HDL-cholesterol contents compared with negative control (C57BL/6J mice; HFHC diet 10 days): not much different; HDL-cholesterol (C57BL/6J mice; Table 3, HFHC diet 10 days): 41.7 ± 6.4 mg/dL; HDL/total cholesterol (C57BL/6J mice; Table 3, HFHC diet 10 days): 24.3%; Total cholesterol (C57BL/6J mice; Table 3, HFHC diet 10 days): 177.0 ± 33.7 mg/dL; total cholesterol in plasma reduced, comparing to a control (C57BL/6J mice; Table 3 experiment, vs HFHC diet group): 14.5%; HDL-cholesterol (C57BL/6J mice; Table 4, HFHC diet 10 days): 44.3 ± 6.5 mg/dL; HDL/total cholesterol (C57BL/6J mice; Table 4, HFHC diet 10 days): 24.5%; Total cholesterol (C57BL/6J mice; Table 4, HFHC diet 10 days): 180.9 ± 32.6 mg/dL; plasma cholesterol reduced, comparing to a control (C57BL/6J mice; Table 4 experiment, vs HFHC diet group): 11.5% |
| C=C[C@@]1(C)CC[C@H]2C(=CC[C@@H]3[C@]2(C)CCC[C@@]3(C)C(=O)O)C1 [Isopimaric acid, isopimaric acid] | 229 | 263 |  |
| CC(C)c1ccc2c(c1)CC[C@H]1[C@](C)(CO)CCC[C@]21C [Dehydroabietinol, dehydroabietinol] | 41 | 60 |  |
| COC(=O)[C@]1(C)CCC[C@]2(C)c3cc(O)c(C(C)C)cc3CCC12 (stereo partly drawn) [R = methylester, 12-hydroxyabietic-8,11,13-trien-18-oic acid methylester] | 129 | 309 |  |
| CC(C)c1cc2c(cc1O)[C@@]1(C)CCCC(C)(C)[C@@H]1CC2 [R = methyl, ferruginol] | 46 | 88 |  |
| COC(OC)[C@]1(C)CCC[C@]2(C)c3cc(O)c(C(C)C)cc3CCC12 (stereo partly drawn) [R = dimethoxymethyl, 12-hydroxyabietic-8,11,13-trien-18-dimethylacetal] | 98 | 199 |  |
